In patent publication US20090163508A1, “AMIDE COMPOUND” (TAKEDA PHARMACEUTICAL COMPANY LIMITED, priority 2007, published 2009):

system: mouse; assay: Analgesic effect in acetic acid writhing test on mouse; format: in vivo; settings: po, 20 min, 10 mg/kg orally, 60 minutes before 0.6% acetic acid i.p., count over 20 minutes relative to the reference group
Method: A suspension of the test compound (10 mg/kg) was orally administered to a mouse. 60 minutes after the administration, a 0.6% aqueous acetic acid solution was intraperitoneally administered in an amount of 10 mL/kg. The mouse was accommodated in a special cage from immediately after the administration until 20 minutes after, and the writhing response was counted. The mean count number was compared relative to the reference group, so as to examine the difference (student's t-test), and the analgesic effect was evaluated.

Compared with `Cc1noc(NC(=O)N2CCN(c3ccnc(-c4cccc(F)c4F)n3)CC2)c1C` [Example 5, 4-[2-(2,3-difluorophenyl)pyrimidin-4-yl]-N-(3,4-dimethylisoxazol-5-yl)piperazine-1-carboxamide], `Cc1noc(NC(=O)N2CCN(c3cncc(-c4ccc(F)cc4F)n3)CC2)c1C` [Example 14, 4-[6-(2,4-difluorophenyl)pyrazin-2-yl]-N-(3,4-dimethylisoxazol-5-yl)piperazine-1-carboxamide] is higher in response vs control in vivo at 10 mg/kg: 42.2% for the first, 67.2% for the second.

Compared with `O=C(Nc1cccnc1)N1CCN(c2nccc(-c3ccc(F)cc3F)n2)CC1` [Example 15, 4-[4-(2,4-difluorophenyl)pyrimidin-2-yl]-N-pyridin-3-ylpiperazine-1-carboxamide], `O=C(Nc1cccnn1)N1CCN(c2nccc(-c3ccc(F)cc3F)n2)CC1` [Example 17, 4-[4-(2,4-difluorophenyl)pyrimidin-2-yl]-N-pyridazin-3-ylpiperazine-1-carboxamide] is lower in response vs control in vivo at 10 mg/kg: 66.7% for the first, 56.9% for the second.

Going from `Cc1noc(NC(=O)N2CCN(c3cc(-c4ccc(F)cc4F)ncn3)CC2)c1C` [Example 19, 4-[6-(2,4-difluorophenyl)pyrimidin-4-yl]-N-(3,4-dimethylisoxazol-5-yl)piperazine-1-carboxamide] to `O=C(Nc1cccnn1)N1CCN(c2nccc(-c3ccc(F)c(F)c3)n2)CC1` [Example 110, 4-[4-(3,4-difluorophenyl)pyrimidin-2-yl]-N-pyridazin-3-ylpiperazin-1-carboxamide], the response vs control in vivo at 10 mg/kg falls from 51.9% to 34.7%.

Compared with `O=C(Nc1cccnc1)N1CCN(c2nccc(-c3ccccc3)n2)CC1` [Example 77, 4-(4-phenylpyrimidin-2-yl)-N-pyridin-3-ylpiperazine-1-carboxamide], `O=C(Nc1cccnn1)N1CCN(c2nccc(-c3ccccc3)n2)CC1` [Example 79, 4-(4-phenylpyrimidin-2-yl)-N-pyridazin-3-ylpiperazine-1-carboxamide] is lower in response vs control in vivo at 10 mg/kg: 46.8% for the first, 38.9% for the second.
